Our source for the ring closure, isolated yield values is patent US12324802B2, “Modulators of cystic fibrosis transmembrane conductance regulator” (Vertex Pharmaceuticals Incorporated, priority 2020, dated 2025).

Each structure is given as a SMILES string. Where two headings read alike, the source gives them in different places.

For the data set the following is noted: rcm bond.

For `CC(C)(C)OC(=O)Nc1cc(C(F)(F)F)c2nc1-c1nnc(o1)C(OCc1ccccc1)(C(F)(F)F)CCC=CCC1CCCN21` (mixture of isomers), the ring closure, isolated yield (from C=CCCC(OCc1ccccc1)(c1nnc(-c2nc(N3CCCC3CC=C)c(C(F)(F)F)cc2NC(=O)OC(C)(C)C)o1)C(F)(F)F, 14-membered ring, Grubbs II (21 mol%), DCE, 15.2 mM, 80.0 °C, 0.75 h) amounted to 84%. Molecule `CC(C)(C)OC(=O)Nc1cc(C(F)(F)F)c2nc1-c1nnc(o1)C(OCc1ccccc1)(C(F)(F)F)CCC=CCCC1CCCN21` (mixture of isomers) yielded a ring closure, isolated yield (from C=CCCC1CCCN1c1nc(-c2nnc(C(CCC=C)(OCc3ccccc3)C(F)(F)F)o2)c(NC(=O)OC(C)(C)C)cc1C(F)(F)F, 15-membered ring, Zhan-1B (24 mol%), DCE, 4.89 mM, 70.0 °C, 16.0 h) of 53%. The molecule `CC(C)(C)OC(=O)Nc1cc(C(F)(F)F)c2nc1-c1nnc(o1)C(OCc1ccccc1)(C(F)(F)F)CCC=CC[C@@H]1CCCN21` (mixture of isomers) showed a ring closure, isolated yield (from C=CCCC(OCc1ccccc1)(c1nnc(-c2nc(N3CCC[C@H]3CC=C)c(C(F)(F)F)cc2NC(=O)OC(C)(C)C)o1)C(F)(F)F, 14-membered ring, Zhan-1B (two charges), DCE, 7.07 mM, 70.0 °C, 20.0 h) of 61%.

For `CC(C)(C)OC(=O)Nc1cc(C(F)(F)F)c2nc1-c1nnc(o1)C(OCc1ccccc1)(C(F)(F)F)CCC=CC[C@@H]1COCC(=O)N21` (mixture of isomers), the ring closure, isolated yield (from C=CCCC(OCc1ccccc1)(c1nnc(-c2nc(N3C(=O)COC[C@H]3CC=C)c(C(F)(F)F)cc2NC(=O)OC(C)(C)C)o1)C(F)(F)F, 14-membered ring, Zhan-1B, DCE, 3.35 mM, 75.0 °C, 4.0 h) is 73%.

As for `CC(C)(C)OC(=O)Nc1cc(C(F)(F)F)c2nc1-c1nnc(o1)C(OCc1ccccc1)CCC=CC[C@@H]1CCCN21` (mixture of isomers), the ring closure, isolated yield (from C=CCCC(OCc1ccccc1)c1nnc(-c2nc(N3CCC[C@H]3CC=C)c(C(F)(F)F)cc2NC(=O)OC(C)(C)C)o1, 14-membered ring, Zhan-1B (15 mol%), DCE, 6.77 mM, 70.0 °C, 20.0 h) came to 6%. As for `CC(C)C1CCC=CC[C@](OCc2ccccc2)(C(F)(F)F)C2=NN=C(O2)c2nc(c(C(F)(F)F)cc2[N+](=O)[O-])N1` (mixture of isomers), for the setting “from C=CCCC(Nc1nc(-c2nnc([C@@](CC=C)(OCc3ccccc3)C(F)(F)F)o2)c([N+](=O)[O-])cc1C(F)(F)F)C(C)C, 14-membered ring, Zhan catalyst-1B, DCE, 15.4 mM, 70.0 °C”, the ring closure, isolated yield is 47%. The molecule `CC(C)N1CCC=CCCC(OCc2ccccc2)(C(F)(F)F)C2=NN=C(O2)c2nc1c(C(F)(F)F)cc2[N+](=O)[O-]` (mixture of isomers) gave a ring closure, isolated yield (from C=CCCN(c1nc(-c2nnc(C(CCC=C)(OCc3ccccc3)C(F)(F)F)o2)c([N+](=O)[O-])cc1C(F)(F)F)C(C)C, 14-membered ring, Zhan-1B, DCE, 2.53 mM, 75.0 °C, 3.0 h) of 84%. `CC1(C)CCC=CC(F)(F)C(OCc2ccccc2)C2=NN=C(O2)c2nc(c(C(F)(F)F)cc2[N+](=O)[O-])N1` (mixture of isomers) had a ring closure, isolated yield (from C=CCCC(C)(C)Nc1nc(-c2nnc(C(OCc3ccccc3)C(F)(F)C=C)o2)c([N+](=O)[O-])cc1C(F)(F)F, 14-membered ring, Grubbs II, 1,2-dichloroethane, 1.85 mM, 75.0 °C, 1.67 h) of 40%. As to `CC1(C)CCC=CC[C@@](OCc2ccccc2)(C(F)(F)F)C2=NN=C(O2)c2nc(c(C(F)(F)F)cc2N(C(=O)OC(C)(C)C)C(=O)OC(C)(C)C)N1` (mixture of isomers), where the note is “from C=CCCC(C)(C)Nc1nc(-c2nnc([C@](CC=C)(OCc3ccccc3)C(F)(F)F)o2)c(N(C(=O)OC(C)(C)C)C(=O)OC(C)(C)C)cc1C(F)(F)F, 14-membered ring, Zhan catalyst-1B, toluene, 8.66 mM, 70.0 °C, 3.0 h”, the ring closure, isolated yield came to 62%. Where the note is “from C=CCCC(OCc1ccccc1)(c1nnc(-c2nc(NC(C)CC=C)c(C(F)(F)F)cc2[N+](=O)[O-])o1)C(F)(F)F, 14-membered ring, Zhan-1B, DCE, 1.85 mM, 75.0 °C, 3.0 h”, `CC1CC=CCCC(OCc2ccccc2)(C(F)(F)F)C2=NN=C(O2)c2nc(c(C(F)(F)F)cc2[N+](=O)[O-])N1` (mixture of isomers) gave a ring closure, isolated yield of 61%. Take `CCOC(=O)C1CC=CCCC(OCc2ccccc2)(C(F)(F)F)C2=NN=C(O2)c2nc(c(C(F)(F)F)cc2[N+](=O)[O-])N1` (mixture of isomers): the ring closure, isolated yield (from C=CCCC(OCc1ccccc1)(c1nnc(-c2nc(NC(CC=C)C(=O)OCC)c(C(F)(F)F)cc2[N+](=O)[O-])o1)C(F)(F)F, 14-membered ring, Zhan catalyst-1B, DCE, 3.41 mM, 75.0 °C, 2.0 h) amounted to 36%.

Take `CCOC(=O)C1CCC=CCC(OCc2ccccc2)(C(F)(F)F)C2=NN=C(O2)c2nc(c(C(F)(F)F)cc2[N+](=O)[O-])N1` (mixture of isomers): the ring closure, isolated yield (from C=CCCC(Nc1nc(-c2nnc(C(CC=C)(OCc3ccccc3)C(F)(F)F)o2)c([N+](=O)[O-])cc1C(F)(F)F)C(=O)OCC, 14-membered ring, Zhan-1B, DCE, 2.96 mM, 75.0 °C, 2.0 h) is 82%. Take `CCOC(=O)CN1CCC=CCCC(OCc2ccccc2)(C(F)(F)F)C2=NN=C(O2)c2nc1c(C(F)(F)F)cc2N(C(=O)OC(C)(C)C)C(=O)OC(C)(C)C` (mixture of isomers): the ring closure, isolated yield (from C=CCCN(CC(=O)OCC)c1nc(-c2nnc(C(CCC=C)(OCc3ccccc3)C(F)(F)F)o2)c(N(C(=O)OC(C)(C)C)C(=O)OC(C)(C)C)cc1C(F)(F)F, 14-membered ring, Zhan-1B, DCE, 2.3 mM, 75.0 °C, 2.0 h) was 92%. Take `CN1CCC=CCCC(OCc2ccccc2)(C(F)(F)F)C2=NN=C(O2)c2nc1c(C(F)(F)F)cc2NC(=O)OC(C)(C)C` (mixture of isomers): under “from C=CCCN(C)c1nc(-c2nnc(C(CCC=C)(OCc3ccccc3)C(F)(F)F)o2)c(NC(=O)OC(C)(C)C)cc1C(F)(F)F, 14-membered ring, Zhan-1B (15 mol%), DCE, 6.34 mM, 70.0 °C, 2.0 h”, the ring closure, isolated yield was 76%. Take `CN1CCC=CCCC(OCc2ccccc2)(C(F)(F)F)C2=NN=C(O2)c2nc1c(S(C)(=O)=O)cc2NC(=O)OC(C)(C)C` (mixture of isomers): the ring closure, isolated yield (from C=CCCN(C)c1nc(-c2nnc(C(CCC=C)(OCc3ccccc3)C(F)(F)F)o2)c(NC(=O)OC(C)(C)C)cc1S(C)(=O)=O, 14-membered ring, Zhan-1B (two charges), DCE, 4.01 mM, 70.0 °C, 14.0 h) was 41%. `COCC1CCC=CC[C@](OCc2ccccc2)(C(F)(F)F)C2=NN=C(O2)c2nc(c(C(F)(F)F)cc2[N+](=O)[O-])N1` (mixture of isomers) returned a ring closure, isolated yield (from C=CCCC(COC)Nc1nc(-c2nnc([C@@](CC=C)(OCc3ccccc3)C(F)(F)F)o2)c([N+](=O)[O-])cc1C(F)(F)F, 14-membered ring, Zhan catalyst-1B, DCE, 3.15 mM, 60.0 °C, 5.75 h) of 48%. `COCCN1CCC=CCCC(OCc2ccccc2)(C(F)(F)F)C2=NN=C(O2)c2nc1c(C(F)(F)F)cc2NC(=O)OC(C)(C)C` (mixture of isomers) gave a ring closure, isolated yield (from C=CCCN(CCOC)c1nc(-c2nnc(C(CCC=C)(OCc3ccccc3)C(F)(F)F)o2)c(NC(=O)OC(C)(C)C)cc1C(F)(F)F, 14-membered ring, Zhan-1B (19 mol%), DCE, 3.22 mM, 70.0 °C, 3.0 h) of 60%. Under “from C=CCCC(OCc1ccccc1)(c1nnc(-c2nc(N3CCC[C@H]3CC=C)cc(OC)c2[N+](=O)[O-])o1)C(F)(F)F, 14-membered ring, Zhan catalyst-1B, DCE, 6.85 mM, 70.0 °C, 5.0 h”, `COc1cc2nc(c1[N+](=O)[O-])-c1nnc(o1)C(OCc1ccccc1)(C(F)(F)F)CCC=CC[C@@H]1CCCN21` (mixture of isomers) yielded a ring closure, isolated yield of 29%. For `O=C1NNC(=O)[C@@](OCc2ccccc2)(C(F)(F)F)CCC=CCC2(CCCCC2)Nc2nc1c([N+](=O)[O-])cc2C(F)(F)F` (mixture of isomers), where the note is “from C=CCC[C@@](OCc1ccccc1)(C(=O)NNC(=O)c1nc(NC2(CC=C)CCCCC2)c(C(F)(F)F)cc1[N+](=O)[O-])C(F)(F)F, 15-membered ring, Zhan catalyst-1B, DCE, 4.99 mM, 60.0 °C, 2.0 h”, the ring closure, isolated yield worked out at 70%. The molecule `O=[N+]([O-])c1cc(C(F)(F)F)c2nc1-c1nnc(o1)C(OCc1ccccc1)(C(F)(F)F)CCC=CCC1CCS(=O)(=O)N21` (mixture of isomers) registered a ring closure, isolated yield (from C=CCCC(OCc1ccccc1)(c1nnc(-c2nc(N3C(CC=C)CCS3(=O)=O)c(C(F)(F)F)cc2[N+](=O)[O-])o1)C(F)(F)F, 14-membered ring, Zhan-1B, DCE, 4.72 mM, 75.0 °C, 6.0 h) of 19%. Take `O=[N+]([O-])c1cc(C(F)(F)F)c2nc1-c1nnc(o1)C(OCc1ccccc1)(C(F)(F)F)CCC=CCCN2CCOCc1ccccc1` (mixture of isomers): the ring closure, isolated yield (from C=CCCN(CCOCc1ccccc1)c1nc(-c2nnc(C(CCC=C)(OCc3ccccc3)C(F)(F)F)o2)c([N+](=O)[O-])cc1C(F)(F)F, 14-membered ring, Zhan-1B (25 mol%), DCE, 2.75 mM, 75.0 °C, 2.0 h) came out at 59%. Take `O=[N+]([O-])c1cc(C(F)(F)F)c2nc1-c1nnc(o1)C(OCc1ccccc1)(C(F)(F)F)CCC=CCCN2Cc1ccccc1` (mixture of isomers): the ring closure, isolated yield (from C=CCCN(Cc1ccccc1)c1nc(-c2nnc(C(CCC=C)(OCc3ccccc3)C(F)(F)F)o2)c([N+](=O)[O-])cc1C(F)(F)F, 14-membered ring, Zhan-1B, DCE, 1.77 mM, 75.0 °C, 3.0 h) came out at 68%. For `O=[N+]([O-])c1cc(C(F)(F)F)c2nc1-c1nnc(o1)C(OCc1ccccc1)(C(F)(F)F)CCC=CC[C@@H]1COCCN21` (mixture of isomers), for the setting “from C=CCCC(OCc1ccccc1)(c1nnc(-c2nc(N3CCOC[C@H]3CC=C)c(C(F)(F)F)cc2[N+](=O)[O-])o1)C(F)(F)F, 14-membered ring, Zhan-1B, DCE, 15.9 mM, 70.0 °C, 3.5 h”, the ring closure, isolated yield came to 56%. As for `O=[N+]([O-])c1cc(C(F)(F)F)c2nc1-c1nnc(o1)[C@@](OCc1ccccc1)(C(F)(F)F)CC=CCCC(c1ncco1)N2` (mixture of isomers), the ring closure, isolated yield (from C=CCCC(Nc1nc(-c2nnc([C@@](CC=C)(OCc3ccccc3)C(F)(F)F)o2)c([N+](=O)[O-])cc1C(F)(F)F)c1ncco1, 14-membered ring, Zhan catalyst-1B, DCE, 2.9 mM, 70.0 °C, 4.25 h) was determined as 46%. Molecule `O=[N+]([O-])c1cc(Cl)c2nc1-c1nnc(o1)C(OCc1ccccc1)(C(F)(F)F)CCC=CC[C@@H]1CCCN21` (mixture of isomers) came in with a ring closure, isolated yield (from C=CCCC(OCc1ccccc1)(c1nnc(-c2nc(N3CCC[C@H]3CC=C)c(Br)cc2[N+](=O)[O-])o1)C(F)(F)F, 14-membered ring, Zhan-1B, DCE, 5.74 mM, 70.0 °C, 3.0 h) of 73%.
